In PMC11432087, “Hydrogen Sulfide-Releasing Carbonic Anhydrase Inhibitors Effectively Suppress Cancer Cell Growth” (International Journal of Molecular Sciences, 2024):
Like-named read-outs stand apart in the source and are kept apart here.

Assays:
[1] = target: hCA XII; conditions: stopped-flow CO2 hydrase assay, mean of three assays; cited from earlier work
[2] = target: hCA I; conditions: stopped-flow CO2 hydrase assay, mean of three assays; cited from earlier work
[3] = target: hCA II; conditions: stopped-flow CO2 hydrase assay, mean of three assays; cited from earlier work
[4] = target: hCA IV; conditions: stopped-flow CO2 hydrase assay, mean of three assays; cited from earlier work
[5] = target: hCA IX; conditions: stopped-flow CO2 hydrase assay, mean of three assays; cited from earlier work
[6] = system: A549; assay: Cell cycle analysis by DNA flow cytometry, A549; assay type: cell-based, human; conditions: A549, 24 h at IC50 concentration
Method: (§1) Following treatment, cells were washed twice with ice-cold phosphate-buffered saline (PBS). Subsequently, the treated cells were harvested through centrifugation, fixed in ice-cold 70% (v/v) ethanol, washed with PBS, re-suspended in 100 μg/mL RNase, stained with 40 μg/mL propidium iodide (PI), and subjected to flow cytometry analysis using FACS Calibur (Becton Dickinson, Franklin Lakes, NJ, USA). The cell cycle distributions were calculated using CellQuest software 5.1 (Becton Dickinson).

[7] = system: A549; assay: Annexin V-FITC/PI dual staining apoptosis assay, A549; assay type: cell-based, human; conditions: for Fold increase in overall apoptosis compared to untreated control: A549; for Early Apoptosis (Lower Right %) / Late Apoptosis (Upper Right %) / Total apoptosis: A549, treated at IC50 concentration
Method: (§2) Phosphatidylserine externalization was evaluated using the Annexin V-FITC/PI apoptosis detection kit (BD Biosciences, USA), following the manufacturer’s guidelines. […] Subsequently, the cells were re-suspended in 100 μL of binding buffer with the addition of 1 μL of FITC-Annexin V, followed by a 30-min incubation at 4 °C. After rinsing in binding buffer, the cells were resuspended in 150 μL of binding buffer with the addition of 1 μL of DAPI (1 μg/μL in PBS). Flow cytometry analysis was performed using the BD FACS Canto II flow cytometer and the results were interpreted with FlowJo7.6.4 software (Tree Star, Ashland, USA).

[8] = system: hCA IX; assay: Stopped-flow CO2 hydrase inhibition assay, hCA IX; assay type: biochemical, human; conditions: ratio of KIs
Method: (§3) An Applied Photophysics stopped-flow instrument (Applied Photophysics Ltd, Leatherhead, UK) was used for assaying the CA-catalyzed CO2 hydration activity. Phenol red (at a concentration of 0.2 mM) was used as an indicator, working at the absorbance maximum of 557 nm, with 20 mM Hepes (pH 7.5) as a buffer and 20 mM Na2SO4 for maintaining constant the ionic strength, following the initial rates of the CA-catalyzed CO2 hydration reaction for a period of 10−100 s. The CO2 concentrations ranged from 1.7 to 17 mM for the determination of the kinetic parameters and inhibition constants. For each inhibitor, at least six traces of the initial 5−10% of the reaction were used for determining the initial velocity. The uncatalyzed rates were determined in the same manner and subtracted from the total observed rates. Stock solutions of inhibitor (0.1 mM) were prepared in distilled−deionized water and dilutions up to 0.01 nM were made thereafter with the assay buffer. Inhibitor and enzyme solutions were preincubated together for 15 min at room temperature before the assay to allow for the formation of the E−I complex. The inhibition constants were obtained by nonlinear least-squares methods using Prism 7 (GraphPad Software, La Jolla, CA, USA) and the Cheng−Prusoff equation and represent the mean of at least three different determinations. The enzyme concentrations were in the range of 3–11 nM. All hCA isoforms were recombinant ones obtained in-house.

[9] = system: A549; assay: MTT antiproliferative assay, A549; assay type: cell-based; conditions: Homo sapiens, normoxic conditions, 72 h
Method: The human triple-negative breast cancer cell line (MDA-MB-231), colon cancer cell line (HCT-116), and lung cancer cell line (A549) used in this study were obtained from the American Type Culture Collection (ATCC). These cell lines were cultured as monolayers in Dulbecco’s Modified Eagle’s Medium (DMEM) supplemented with 10% FBS, 2 mM l-glutamine, 100 U/mL penicillin, and 100 µg/mL streptomycin sulfate. […] The cells were sub-cultured using trypsin/EDTA solution, counted with a hemocytometer, and plated on 96-well plates (5000 cells/well), allowing them to form a semi-confluent monolayer overnight. […]. DMSO (100 µL/well) was then added to dissolve the formazan crystals with shaking for 10 min, after which the absorb absorbance was read at 590 nm against no-cell blanks using a FLuo Star Optima microplate reader (BMG technologies, Ortenberg, Germany). Cell proliferation was calculated by comparing the OD values of the DMSO control wells with those of the samples, represented as % proliferation relative to the control.

[10] = system: HCT-116; assay: Annexin V-FITC/PI dual staining apoptosis assay, HCT-116; assay type: cell-based, human; conditions: for Fold increase in overall apoptosis compared to untreated control: HCT-116; for Early Apoptosis (Lower Right %) / Late Apoptosis (Upper Right %) / Total apoptosis: HCT-116, treated at IC50 concentration
Method: as §2

[11] = system: HCT-116; assay: MTT antiproliferative assay, HCT-116 (normoxia and CoCl2-induced hypoxia); assay type: cell-based, human; conditions: HCT-116; for IC50: Homo sapiens, MTT, 72 h
Method: (§4) These cell lines were cultured as monolayers in Dulbecco’s Modified Eagle’s Medium (DMEM) supplemented with 10% FBS, 2 mM l-glutamine, 100 U/mL penicillin, and 100 µg/mL streptomycin sulfate. […] The cells were sub-cultured using trypsin/EDTA solution, counted with a hemocytometer, and plated on 96-well plates (5000 cells/well), allowing them to form a semi-confluent monolayer overnight. […] DMSO (100 µL/well) was then added to dissolve the formazan crystals with shaking for 10 min, after which the absorb absorbance was read at 590 nm against no-cell blanks using a FLuo Star Optima microplate reader (BMG technologies, Ortenberg, Germany). Cell proliferation was calculated by comparing the OD values of the DMSO control wells with those of the samples, represented as % proliferation relative to the control.

[12] = system: MDA-MB-231; assay: MTT antiproliferative assay, MDA-MB-231; assay type: cell-based; conditions: Homo sapiens, normoxic conditions, 72 h
Method: as §4

[13] = system: hCA XII; assay: Stopped-flow CO2 hydrase inhibition assay, hCA XII; assay type: biochemical, human; conditions: ratio of KIs
Method: as §3

[14] = system: HCT-116; assay: Cell cycle analysis by DNA flow cytometry, HCT-116; assay type: cell-based, human; conditions: HCT-116, 24 h at IC50 concentration
Method: as §1

[15] = compound 150 µM, rat liver homogenate, 37 °C; cited from earlier work
[16] = chemically induced hypoxia with CoCl2·6H2O, read-out: IC50 HCT-116 (Hypoxia)
[17] = normoxic conditions, read-out: IC50 HCT-116 (Normoxia)

NS(=O)(=O)c1ccc(CCN(Cc2ccccc2)C(=O)c2ccc(-c3cssc3=S)cc2)cc1 [Compound 19]
Ki [1]: 9.7 nM | Ki [2]: 771 nM | Ki [3]: 480 nM | Ki [4]: 4340 nM | Ki [5]: 43 nM

NS(=O)(=O)c1ccc(CCN(Cc2ccc(F)cc2)C(=O)c2ccc(-c3cssc3=S)cc2)cc1 [Compound 20]
Ki [1]: 65.3 nM | Ki [2]: 5320 nM | Ki [3]: 600 nM | Ki [4]: > 10000 nM | Ki [5]: 46.3 nM

NS(=O)(=O)c1ccc(CCN(Cc2ccc(Cl)cc2)C(=O)c2ccc(-c3cssc3=S)cc2)cc1 [Compound 21]
Ki [1]: 9.8 nM | Ki [2]: 5500 nM | Ki [3]: 2970 nM | Ki [4]: 430 nM | Ki [5]: 24 nM

N#Cc1ccc(CN(CCc2ccc(S(N)(=O)=O)cc2)C(=O)c2ccc(-c3cssc3=S)cc2)cc1 [Compound 23]
Ki [1]: 8.8 nM | %G0-G1 [6]: 29.65% | %G2/M [6]: 28.09% | %S [6]: 26.28% | %Sub-G1 [6]: 15.98% | Ki [2]: > 10000 nM | Fold increase in overall apoptosis compared to untreated control [7]: 14.2 fold | Early Apoptosis (Lower Right %) [7]: 6.91% | Late Apoptosis (Upper Right %) [7]: 10.13% | Total apoptosis [7]: 17.04% | Ki [3]: 4830 nM | hCA II/hCA IX selectivity ratio [8]: 120 | IC50 [9]: 4530 ± 120 nM | Fold increase in overall apoptosis compared to untreated control [10]: 37.2 fold | Early Apoptosis (Lower Right %) [10]: 7.69% | Late Apoptosis (Upper Right %) [10]: 21.33% | Total apoptosis [10]: 29.02% | IC50 Normoxia / IC50 Hypoxia [11]: 0.3 | IC50 [11, 16]: 4270 ± 80 nM | IC50 [11, 17]: 1240 ± 40 nM | IC50 [12]: 1530 ± 40 nM | Ki [5]: 40.3 nM | hCA II/hCA XII selectivity ratio [13]: 548 | %G0-G1 [14]: 20.35% | %G2/M [14]: 32.2% | %S [14]: 23.29% | %Sub-G1 [14]: 24.16%

CN(C)c1ccc(CN(CCc2ccc(S(N)(=O)=O)cc2)C(=O)c2ccc(-c3cssc3=S)cc2)cc1 [Compound 24]
Ki [1]: 9.5 nM | Ki [2]: 4260 nM | Ki [3]: 995 nM | Ki [4]: 3410 nM | Ki [5]: 22.7 nM

NS(=O)(=O)c1ccc(CCN(Cc2ccc([N+](=O)[O-])cc2)C(=O)c2ccc(-c3cssc3=S)cc2)cc1 [Compound 25]
Ki [1]: 32.9 nM | Ki [2]: 7450 nM | Ki [3]: 919 nM | Ki [4]: > 10000 nM | Ki [5]: 36.6 nM

COc1cc([N+](=O)[O-])ccc1CN(CCc1ccc(S(N)(=O)=O)cc1)C(=O)c1ccc(-c2cssc2=S)cc1 [Compound 26]
Ki [1]: 7.7 nM | %G0-G1 [6]: 29.49% | %G2/M [6]: 33.05% | %S [6]: 22.54% | %Sub-G1 [6]: 14.92% | Ki [2]: 6700 nM | Fold increase in overall apoptosis compared to untreated control [7]: 13.1 fold | Early Apoptosis (Lower Right %) [7]: 6.47% | Late Apoptosis (Upper Right %) [7]: 9.3% | Total apoptosis [7]: 15.77% | Ki [3]: 2950 nM | H2S release half-life t/2 [15]: 4.9 min | hCA II/hCA IX selectivity ratio [8]: 719 | IC50 [9]: 7470 ± 310 nM | Ki [4]: 4090 nM | Fold increase in overall apoptosis compared to untreated control [10]: 24.5 fold | Early Apoptosis (Lower Right %) [10]: 4.13% | Late Apoptosis (Upper Right %) [10]: 14.96% | Total apoptosis [10]: 19.09% | IC50 Normoxia / IC50 Hypoxia [11]: 0.6 | IC50 [11, 16]: 3730 ± 70 nM | IC50 [11, 17]: 2300 ± 72 nM | IC50 [12]: 10400 ± 610 nM | Ki [5]: 4.1 nM | hCA II/hCA XII selectivity ratio [13]: 383 | %G0-G1 [14]: 27.14% | %G2/M [14]: 30.29% | %S [14]: 24.13% | %Sub-G1 [14]: 18.44%

COc1ccc(CN(CCc2ccc(S(N)(=O)=O)cc2)C(=O)c2ccc(-c3cssc3=S)cc2)cc1 [Compound 27]
Ki [1]: 76.4 nM | Ki [2]: 2220 nM | Ki [3]: 589 nM | Ki [4]: 1590 nM | Ki [5]: 50.3 nM

COc1ccc(CN(CCc2ccc(S(N)(=O)=O)cc2)C(=O)c2ccc(-c3cssc3=S)cc2)cc1OC [Compound 28]
Ki [1]: 8.9 nM | Ki [2]: 890 nM | Ki [3]: 218 nM | Ki [4]: 293 nM | Ki [5]: 18.6 nM

NS(=O)(=O)c1ccc(CCN(Cc2csc3ccccc23)C(=O)c2ccc(-c3cssc3=S)cc2)cc1 [Compound 31]
Ki [1]: 8 nM | Ki [2]: > 10000 nM | Ki [3]: 2480 nM | Ki [5]: 2.4 nM

NS(=O)(=O)c1ccc(CCN(CCc2ccccc2)C(=O)c2ccc(-c3cssc3=S)cc2)cc1 [Compound 32]
Ki [1]: 9.6 nM | Ki [2]: 4390 nM | Ki [3]: 661 nM | Ki [4]: 243 nM | Ki [5]: 126 nM

N#CCCN(CCc1ccc(S(N)(=O)=O)cc1)C(=O)c1ccc(-c2cssc2=S)cc1 [Compound 33]
Ki [1]: 9.1 nM | Ki [2]: 429 nM | Ki [3]: 60.4 nM | Ki [4]: 523 nM | Ki [5]: 28.7 nM

CN[C@@H]1C[C@H]2O[C@@](C)([C@@H]1OC)n1c3ccccc3c3c4c(c5c6ccccc6n2c5c31)C(=O)NC4 [Staurosporine, reference compound]
IC50 [9]: 5110 ± 190 nM
